# In patent US11400102B2, “Treatment for bacterial infections with salicylic acid analogs” (priority 2019, dated 2022):
# Entries after “also recorded” stand apart in the source; their conditions may differ. Read-outs that look alike come from different tables or passages of the source.
# Experiments:
# yersiniabactin = test: Mutasynthesis study: incorporation of variant salicylic acids into yersiniabactin (LC-MS); assay type: cell-based, uropathogenic E. coli (UTI89ΔybtS)
# Procedure: FIG. 11 depicts the experimental protocol for the screening assay. […] a strain of uropathogenic E. coli (UTI89ΔybtS) that cannot produce endogenous salicylic acid but can be chemically complemented with salicylic acid in growth medium. […]+1% casamino acids (CAA) and 20 μM 2′,2′-dipyridyl (DP) were added along with a variety of variant salicylic acids (Table 1) bearing different moieties on carbons 3 to 6. The amount of Ypt in the sample was then quantified using LC-MS.
# Walking around the Figure from bottom left: -LC-MS method called neutral loss, where any molecule that loses 187 mass units that are characteristic of yersiniabactin, -different metal species of yersiniabactin can be detected in the supernatant of a UTI89 culture; these have distinct retention times by liquid chromatography; confirm that the molecules contributing to this LC peak are a variant yersiniabactin with a fluorine by the mass.
# [1] = tested on: yersiniabactin biosynthesis; test: Culture screen of salicylate analogs for yersiniabactin (Fe-Ybt) in UTI89 supernatant by LC-MS; assay type: cell-based, uropathogenic E. coli UTI89; details: Escherichia coli, read-out: yersiniabactin inhibition
# Excerpt: While investigating in vivo Ybt production in the mouse cystitis model, we observed that a salicylate synthase-deficient uropathogen (UTI89ΔybtS) produces Ybt at near-wild type levels (FIG. 6A). We biochemically connected this phenotype to a uropathogenic ability to scavenge low level urinary salicylate (of presumed dietary origin) (31) as a yersiniabactin biosynthetic substrate. Both human and mouse urine chemically complemented UTI89ΔybtS in this manner, showing that low micromolar salicylate accesses cytoplasmic siderophore biosynthetic enzymes. […] Active compounds could be further divided into those that inhibit the yersiniabactin biosynthetic activity and those that displace the native salicylate substrate, resulting in a variant form of yersiniabactin (vYbt) containing the modified salicylate ring (see fluorinated yersiniabactin in FIG. 6D). The latter process, termed mutasynthesis, has been described for the related pyochelin siderophore system in Pseudomonas (32).
# UTI189 cultures were grown overnight in media supplemented with M63+DP+CAA and 50 μM of a salicylic acid analog. Supernatants were then examined for ferric-Ybt and the area of the MS-peak corresponding to that complex was measured. […] In many cases, a 5-fold or greater reduction was observed (FIG. 17).
# As described in Example 10, a culture based screen of yersiniabactin biosynthetic inhibitor candidates was undertaken. The screening protocol is described in FIG. 20; E. coli were cultured in 96 well plates at 37° C. in the presence of various yersiniabactin inhibitor candidates. The yersiniabactin secretion in the media was measured using LC-MS using an internal standard (leucine encephalin). Bacterial growth, measured by optical density, was assessed for general toxicity and LC-MS quantification of enterobactin, a related but chemically and biochemically distinct, siderophore in medium at endpoint was measured for off-target activity.
# [2] = tested on: yersiniabactin production; test: Yersiniabactin and intermediates (HPT, Esn) in clinical urinary E. coli isolates; assay type: cell-based; details: 50 μM, FIGS. 30-33
# Procedure: The following clinical urinary E. coli isolates were chosen since they each secrete yersiniabactin: rUTI2, JMUSB64(490), JMUSB40(518), JMUSB115(530), JMUSB351(544), JMUB470(557), fCAUTI/B2 (sequence type ST131: ZZ13, ZZ15, ZZ16, ZZ18, ZZ22, and non ST131:ZZ23).
# Specifically, HPT and escherichelin (Esn) were measured alongside the end product yersiniabactin. In addition, the production of enterobactin was measured as a counterscreen. In FIGS. 30-33, relative amounts of each analyte (HPT, Esn, Yrt) are depicted for each culture exposed to 50 μM of each inhibitor. A graph corresponding to reference UTI89 is reproduced in each figure (upper left).
# There was negligible effect on enterobactin biosynthesis as well as less inhibition of biosynthetic precursors to yersiniabactin: HPT and HPTT. […] In this manner, HPTT/escherichelin production by E. coli may protect human hosts.
# [3] = tested on: yersiniabactin production; test: Dose response of yersiniabactin production in UTI89 culture; assay type: cell-based, Uropathogenic E. coli strain UTI89; details: for EC50: Escherichia coli
# Procedure: Three biological triplicate experiments were completed wherein the % Ybt was measured relative to untreated controls (UTI189Δ189 in 70% ETOH). […] The experimental details describing how Ybt was quantified (using mass spectrometry) and how samples were prepared and treated are described in Chaturvedi, K S et al. Nature chemical biology. 8.8(2012):731-736.
# FIGS. 25 and 26 show the effect of 5-methyl salicylic acid on yersiniabactin production in an E. coli culture. In FIG. 25, a dose response curve of yersiniabactin synthesis in the presence of increasing concentrations of 5-methyl-salicylate is shown. Uropathogenic E. coli strain UTI89 were grown in low iron culture with the indicated concentrations of 5-methyl salicylate. Yersiniabactin content of culture supernatants was measured by LC-MS/MS relative to an internal standard. The EC50 was determined to be 0.89±0.10 μM. In FIG. 26 a representative mass spectra is depicted illustrating the presence of yersiniabactin fragments in untreated control (left panel) that are missing in media treated with 5-methyl salicylic acid (right panel).
# Uropathogenic bacteria were again grown in low iron culture in the presence of varying concentrations of salicylic acid serivatives having different methylation positions.
# UPEC urinary growth = test: Urinary growth assay in the presence of Lcn2; assay type: cell-based, uropathogenic E. coli; details: human urine
# Excerpt: Both neutrophils and epithelial cells produce and secrete the soluble protein Lipocalin 2 (Lcn2) into the urine and bladder lumen. Lcn2 binds a wide range of […] and their ferric complexes, presumably restricting their availability to bacteria (28). We used purified Lcn2, human urine specimens, and our panel of UPEC siderophore mutants to determine whether siderophore systems counteract Lcn2's presumed bacteriostatic activity. […] We further discovered that this phenotype varies between individual urines such that urinary growth is strongly enterobactin-dependent in some (“restrictive” individuals) and less so in others (“permissive” individuals). We have related this to a distinctive urinary metabolomic biomarker profile (29) in these individuals. […]
# Restored yersiniabactin biosynthesis in a salicylate synthase deletion mutant (UTI89ΔybtS) during UTI led us to evaluate the pathway's subsequent biosynthetic enzyme—the aryl acid adenylating enzyme (AAAE) YbtE—as a drug target. […] We evaluated YbtE and its enterobactin pathway equivalent EntE as candidate drug targets using a series of six rationally-designed, non-hydrolyzable nucleoside AAAE inhibitors from the laboratory of Courtney Aldrich (see collaboration letter).
# [4] = tested on: yersiniabactin production (YbtE); test: Aryl acid adenylating enzyme inhibitors: yersiniabactin production by UTI89; assay type: cell-based, E. coli UTI89; details: AAAE inhibitors
# Excerpt: (§1) Restored yersiniabactin biosynthesis in a salicylate synthase deletion mutant (UTI89ΔybtS) during UTI led us to evaluate the pathway's subsequent biosynthetic enzyme—the aryl acid adenylating enzyme (AAAE) YbtE—as a drug target. UTI89ΔybtE produced no detectable yersiniabactin at 1 day, 1 week or 2 weeks following inoculation and is furthermore less virulent than wild type UTI89, as evidenced by a fewer chronically infected mice, a notable result for a non-conserved gene (FIG. 7A). We evaluated YbtE and its enterobactin pathway equivalent EntE as candidate drug targets using a series of six rationally-designed, non-hydrolyzable nucleoside AAAE inhibitors from the laboratory of Courtney Aldrich (see collaboration letter).
# To test whether interference with the downstream adenylating enzyme, YbtE, could also affect yersiniabactin production, a series of YbtE inhibitors were applied to cultures of UTI89 and the Fe-Ybt peak ratio measured (FIG. 19). UT189 was grown overnight in medium supplemented with M63, DP and CAA and 100 μM of the tested compounds. […] Therefore, the salicylic analogs may act to inhibit YbtE, rather than YbtS, in the biosynthetic pathway to reduce overall production of yersiniabactin.
# [5] = tested on: enterobactin production (EntE); test: Aryl acid adenylating enzyme inhibitors: enterobactin production by UTI89; assay type: cell-based, E. coli UTI89; details: AAAE inhibitors
# Excerpt: as §1
# [6] = tested on: yersiniabactin production; details: FIG. 37
# enterobactin production = details: FIG. 37
# [7] = tested on: Ybt-deficient (UTI89ΔybtS) culture; test: Copper toxicity and Ybt cytoprotection in Ybt-deficient culture; details: 10 μM cupric sulfate
# Procedure: Growth was determined and expressed as total CFU ml^−1. […] For each patient, the difference in urinary and nonurinary strain growth is reported such that a positive value indicates prefential growth by the urinary isolate. In the four patients from whom multiple coincident urinary and nonurinary strains were recovered, the mean growth difference is reported. […] NS, nonsignificant, indicating P>0.05. […] Results are shown as mean±s.d.; n=3; *P<0.05, **P<0.01 and ***P<0.001.
smiles,measurement,setting,value
O=C(O)c1c(O)ccc2ccccc12 [2-hydroxy-1-naphthoic acid],incorporation into variants of yersiniabactin,yersiniabactin; listed as 2-hydroxy-1-naphoic acid,lack of incorporation
same,incorporation into variants of yersiniabactin,yersiniabactin; listed as 2-hydroxy-1-nathoic acid,not incorporated
O=C(O)c1ccc(Cl)cc1O [4-chlorosalicylic acid],inhibition at 50 µM,[1],> 90%
O=C(O)c1cc(F)ccc1O [5-fluorosalicylic acid],incorporation into variants of yersiniabactin,yersiniabactin,incorporated; also recorded: incorporation
Cc1ccc(O)c(C(=O)O)c1 [5-methylsalicylic acid],"order of yersiniabactin inhibition, most potent to least potent",[2],most potent
same,yersiniabactin expression in a variety of strains,[2],very effective
same,EC50,"[3]; read-out: EC50, % Ybt relative to untreated controls",~1900 nM
same,EC50,"[3]; read-out: EIC, inhibits biosynthesis in culture",~2000 nM
same,EC50,"[3]; UTI89, low iron culture, LC-MS/MS, FIG. 25, read-out: EC50, yersiniabactin content of culture supernatants",890 ± 100 nM
same,inhibition at 50 µM,[1],> 90%
O=C(O)c1c(O)cccc1F [6-fluorosalicylic acid],"order of yersiniabactin inhibition, most potent to least potent",[2],least potent
same,inhibition at 50 µM,[1],> 90%
Cc1cccc(O)c1C(=O)O [6-methylsalicylic acid],"yersiniabactin inhibitory activity, dose response","[3]; low iron culture, methylated salicylic acids, FIG. 27",limited activity
same,inhibition at 50 µM,[1],> 90%
Nc1ncnc2c1ncn2[C@@H]1O[C@H](COS(=O)(=O)NC(=O)c2cccc(O)c2O)[C@@H](O)[C@H]1O [DHB-AMS],phenotype in the urinary growth assay,UPEC urinary growth,mimicked an enterobactin biosynthesis mutant phenotype
same,yersiniabactin production by UTI89,[4],completely inhibiting
same,enterobactin production by UTI89,[5],completely inhibiting
Nc1ncnc2c1ncn2[C@@H]1O[C@H](COS(=O)(=O)NC(=O)c2ccccc2O)[C@@H](O)[C@H]1O [Sal-AMS],yersiniabactin production by UTI89,[4],completely inhibiting
same,enterobactin production by UTI89,[5],completely inhibiting
"COc1cc(Cc2cnc(N)nc2N)cc(OC)c1OC [TMP, trimethoprim]",yersiniabactin production,[6],markedly decrease
same,enterobactin production,enterobactin production,not
"O=S(=O)([O-])[O-].[Cu+2] [copper, cupric sulfate]",decrease in viability,[7],> 3 log CFU ml^−1
